Results from patent US20210393574A1, “USE OF C[…] IN NEURO[…]” (HANYI BIO-TECHNOLOGY (BEIJING) CO., LTD., priority 2018, published 2021).
Structures can show the parent of a compound that is named as a salt.

Assays:
guinea pigs = assay: Impact on the itch-causing effect of histamine phosphate (itch-causing threshold); type: in vivo; settings: for itch-causing threshold: oral, 3 consecutive days; for alleviation of the itch-causing effect of histamine phosphate (in words): administration alone
5-HT1A receptors = target: T1, 5-HT1A receptors (Mus musculus, UniProt Q64264); settings: possibly through activation of 5-HT1A receptors; cited from earlier work
T1 construct: host or cells: mice (in vivo)
T1 sequence (Q64264 1-421): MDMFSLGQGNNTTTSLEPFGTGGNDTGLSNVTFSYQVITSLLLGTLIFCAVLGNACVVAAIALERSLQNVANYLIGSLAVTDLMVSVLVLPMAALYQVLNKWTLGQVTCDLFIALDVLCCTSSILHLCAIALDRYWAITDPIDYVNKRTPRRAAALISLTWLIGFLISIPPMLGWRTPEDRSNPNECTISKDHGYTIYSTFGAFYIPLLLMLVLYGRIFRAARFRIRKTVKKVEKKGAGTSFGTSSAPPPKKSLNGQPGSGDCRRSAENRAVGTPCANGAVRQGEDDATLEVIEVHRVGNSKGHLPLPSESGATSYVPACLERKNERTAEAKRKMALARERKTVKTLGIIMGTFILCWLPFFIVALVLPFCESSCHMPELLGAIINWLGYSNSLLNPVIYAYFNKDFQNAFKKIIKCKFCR

[1] = system: patients with diagnosed neurodermatitis; assay: Clinical study of cannabinoid compound for neurodermatitis; type: in vivo, human; settings: 2 weeks; for Cured (number of patients, efficacy index >90%) / effective (number of patients, efficacy index 20-60%) / excellently effective (number of patients, efficacy index 61-89%) / ineffective (number of patients, efficacy index <20%): orally once per day at bedtime, n=10; for clinical efficacy in neurodermatitis (in words): patients, orally once per day
[2] = 200 mg of cannabidiol (Embodiment 1)
[3] = 25 mg/d of doxepin hydrochloride
[4] = 100 mg of tetrahydrocannabinol (Embodiment 3)

## CN(C)CCC(c1ccc(Cl)cc1)c1ccccn1 (stereo not drawn) [chlorphenamine maleate, reference compound]
Guinea pigs; 10 mg/day
  itch-causing threshold: 127.03 ± 54.05 µL

## C=C(C)[C@@H]1CCC(C)=C[C@H]1c1c(O)cc(CCC)cc1O [cannabidivarin]
Guinea pigs; 40 mg/day
  itch-causing threshold: 56.23 ± 45.87 µL
Guinea pigs; 80 mg/day
  itch-causing threshold: 59.55 ± 39.84 µL
Guinea pigs; 100 mg/day
  itch-causing threshold: 56.89 ± 34.25 µL

## C=C(C)[C@@H]1CCC(C)=C[C@H]1c1c(O)cc(CCCCC)cc1O [cannabidiol]
Guinea pigs
  alleviation of the itch-causing effect of histamine phosphate (in words): significantly alleviates
Guinea pigs; 50 mg/day
  itch-causing threshold: 90.24 ± 45.98 µL
Guinea pigs; 200 mg/day
  itch-causing threshold: 96.55 ± 42.34 µL
Guinea pigs; 400 mg/day
  itch-causing threshold: 117.67 ± 44.67 µL
5-HT1A receptors
  antidepressant activity in mice (in words): has antidepressant activity in mice
[1]; [2]
  Cured (number of patients, efficacy index >90%): 1
  effective (number of patients, efficacy index 20-60%): 6
  excellently effective (number of patients, efficacy index 61-89%): 3
  ineffective (number of patients, efficacy index <20%): 0
[1]
  clinical efficacy in neurodermatitis (in words): have clinical efficacy in neurodermatitis

## CCCc1cc(O)c2c(c1)OC(C)(C)[C@@H]1CCC(C)=C[C@@H]21 [tetrahydrocannabinovarin]
Guinea pigs; 5 mg/day
  itch-causing threshold: 50.45 ± 45.67 µL
Guinea pigs; 10 mg/day
  itch-causing threshold: 56.43 ± 34.18 µL
Guinea pigs; 20 mg/day
  itch-causing threshold: 55.23 ± 40.92 µL

## CN(C)CCC=C1c2ccccc2COc2ccccc21 [doxepin hydrochloride, reference compound]
[1]; [3]
  Cured (number of patients, efficacy index >90%): 0
  effective (number of patients, efficacy index 20-60%): 3
  excellently effective (number of patients, efficacy index 61-89%): 6
  ineffective (number of patients, efficacy index <20%): 1

## CCCCCc1cc(O)c2c(c1)OC(C)(C)[C@@H]1CCC(C)=C[C@@H]21 [tetrahydrocannabinol]
Guinea pigs
  alleviation of the itch-causing effect of histamine phosphate (in words): significantly alleviates
Guinea pigs; 40 mg/day
  itch-causing threshold: 90.65 ± 32.08 µL
Guinea pigs; 80 mg/day
  itch-causing threshold: 92.10 ± 50.78 µL
Guinea pigs; 100 mg/day
  itch-causing threshold: 94.98 ± 48.96 µL
[1]; [4]
  Cured (number of patients, efficacy index >90%): 1
  effective (number of patients, efficacy index 20-60%): 6
  excellently effective (number of patients, efficacy index 61-89%): 2
  ineffective (number of patients, efficacy index <20%): 1
[1]
  clinical efficacy in neurodermatitis (in words): have clinical efficacy in neurodermatitis
